Laboratory results reported in US10611731B2, “5-methyl-6-phenyl-4,5-dihydro-2H-pyridazin-3-one derivative” (OTSUKA PHARMACEUTICAL CO., LTD., priority 2016, dated 2020).

Test system: human childhood brain tumor cell lines (PFSK-1)
Test: Growth inhibitory activity against PFSK-1 cells (WST-8, Cell Counting Kit-8)
Assay type: cell-based
Conditions: Homo sapiens, 72 h, 3 days incubation with test compound, WST-8 OD 450/630 nm, read-out: IC50 (concentration inhibiting 50% of the cell growth)
Experimental: The growth inhibitory activity against human childhood brain tumor cell lines (PFSK-1) was measured with WST-8 reagent [2-(2-methoxy-4-nitrophenyl)-3-(4-nitrophenyl)-5-(2,4-disulfophenyl)-2H-tetrazolium monosodium salt, Cell Counting Kit-8™], according to the method described in Tominaga, H. et al., Anal. Commun., 1999, 36, 47-50. Briefly, PFSK-1 was seeded in 96-well microplate at 100 μL/well with Roswell Park Memorial Institute (RPMI) 1640 medium containing 10% fetal bovine serum (FBS), and the cells were incubated in the presence of 5% carbon dioxide (CO2) at 37° C. for 24 hours. 50 μL of each test compound diluted with the medium was added to each well, and then the cells were incubated further for 3 days. After the incubation, 15 μL of Cell Counting Kit-8™ was added to each well, and the cells were incubated for one and half hours. Then, optical density (OD) values at measurement wavelength 450 nm and reference wavelength 630 nm were measured and the difference thereof was calculated. From the calculated difference, the OD value difference (at measurement wavelength 450 nm and reference wavelength 630 nm) of the control well which includes no cell was subtracted to afford cell-growth activity in each well.
The cell growth inhibitory activity of each test compound was calculated by comparing the cell-growth activity with each test compound to the cell-growth activity without any test compound (control), and each IC50 (nM) which is the concentration inhibiting 50% of the cell growth was calculated.

SMILES	IC50
CC1CC(=O)NN=C1c1cc(F)c(OCCCCO)c(Br)c1 (centres unmarked) [Example 80, 6-[3-Bromo-5-fluoro-4-(4-hydroxybutoxy)phenyl]-5-methyl-4,5-dihydro-2H-pyridazin-3-one]	5.1 nM
CC1CC(=O)NN=C1c1cc(Cl)c(OCCCCO)c(Cl)c1 (centres unmarked) [Example 81, 6-[3,5-Dichloro-4-(4-hydroxybutoxy)phenyl]-5-methyl-4,5-dihydro-2H-pyridazin-3-one]	4.7 nM
CC1CC(=O)NN=C1c1ccc(OCCCCO)c(F)c1F (centres unmarked) [Example 82, 6-[2,3-Difluoro-4-(4-hydroxybutoxy)phenyl]-5-methyl-4,5-dihydro-2H-pyridazin-3-one]	6 nM
Cc1c(OCCCCO)ccc(C2=NNC(=O)CC2C)c1F (centres unmarked) [Example 83, 6-[2-Fluoro-4-(4-hydroxybutoxy)-3-methylphenyl]-5-methyl-4,5-dihydro-2H-pyridazin-3-one]	6.6 nM
CC1CC(=O)NN=C1c1ccc(OCCCCO)c(Cl)c1F (centres unmarked) [Example 84, 6-[3-Chloro-2-fluoro-4-(4-hydroxybutoxy)phenyl]-5-methyl-4,5-dihydro-2H-pyridazin-3-one]	3.3 nM
C=Cc1c(OCCCO)ccc(C2=NNC(=O)CC2C)c1F (centres unmarked) [Example 85, 6-[2-Fluoro-4-(3-hydroxypropoxy)-3-vinylphenyl]-5-methyl-4,5-dihydro-2H-pyridazin-3-one]	4 nM
Cc1cc(C2=NNC(=O)CC2C)cc(Cl)c1OC/C=C\CO (centres unmarked) [Example 86, 6-{3-Chloro-4-[(Z)-4-hydroxy-2-butenyloxy]-5-methylphenyl}-5-methyl-4,5-dihydro-2H-pyridazin-3-one]	4.6 nM
CC1CC(=O)NN=C1c1ccc(OC/C=C/CO)c(Cl)c1F (centres unmarked) [Example 90, 6-[3-Chloro-2-fluoro-4-[(E)-4-hydroxy-2-butenyloxy]phenyl}-5-methyl-4,5-dihydro-2H-pyridazin-3-one]	3.9 nM
CC1CC(=O)NN=C1c1ccc(OCCCCCO)c(Cl)c1F (centres unmarked) [Example 91, 6-[3-Chloro-2-fluoro-4-(5-hydroxypentoxy)phenyl]-5-methyl-4,5-dihydro-2H-pyridazin-3-one]	6 nM
Cc1c(OC/C=C\CO)ccc(C2=NNC(=O)CC2C)c1F (centres unmarked) [Example 92, 6-[2-Fluoro-4-[(Z)-4-hydroxy-2-butenyloxy]-3-methylphenyl]-5-methyl-4,5-dihydro-2H-pyridazin-3-one]	4.9 nM
CC1CC(=O)NN=C1c1ccc(OC/C=C\CO)c(F)c1F (centres unmarked) [Example 93, 6-{2,3-Difluoro-4-[(Z)-4-hydroxy-2-butenyloxy]phenyl}-5-methyl-4,5-dihydro-2H-pyridazin-3-one]	3.1 nM
CC1CC(=O)NN=C1c1cc(F)c(OC/C=C\CO)c(Cl)c1 (centres unmarked) [Example 94, 6-{3-Chloro-5-fluoro-4-[(Z)-4-hydroxy-2-butenyloxy]phenyl}-5-methyl-4,5-dihydro-2H-pyridazin-3-one]	3 nM
CC1CC(=O)NN=C1c1cc(F)c(OC/C=C\CO)c(Br)c1 (centres unmarked) [Example 95, 6-{3-Bromo-5-fluoro-4-[(Z)-4-hydroxy-2-butenyloxy]phenyl}-5-methyl-4,5-dihydro-2H-pyridazin-3-one]	3 nM
C=Cc1c(OC/C=C\CO)ccc(C2=NNC(=O)CC2C)c1F (centres unmarked) [Example 96, 6-{2-Fluoro-4-[(Z)-4-hydroxy-2-butenyloxy]-3-vinylphenyl}-5-methyl-4,5-dihydro-2H-pyridazin-3-one]	3.9 nM
CCc1c(OCCCCO)ccc(C2=NNC(=O)CC2C)c1F (centres unmarked) [Example 97, 6-[3-Ethyl-2-fluoro-4-(4-hydroxybutoxy)phenyl]-5-methyl-4,5-dihydro-2H-pyridazin-3-one]	8.6 nM
Cc1cc(C2=NNC(=O)CC2C)cc(Cl)c1OCC(C)(C)CCO (centres unmarked) [Example 98, 6-[3-chloro-4-(4-hydroxy-2,2-dimethylbutoxy)-5-methylphenyl]-5-methyl-4,5-dihydro-2H-pyridazin-3-one]	3.6 nM
CC1CC(=O)NN=C1c1cc(F)c(OCC(C)(C)CCO)c(Cl)c1 (centres unmarked) [Example 99, 6-[3-chloro-5-fluoro-4-(4-hydroxy-2,2-dimethylbutoxy)phenyl]-5-methyl-4,5-dihydro-2H-pyridazin-3-one]	< 1 nM
